Assay results: PubChem BioAssay AID720495 (Broad Institute, 2013)
Records with an inconclusive call do not appear. Activity calls are given as the source filed them. The rule behind the calls is not given here.

Biological target: Protein AF-9 (Homo sapiens) (UniProt P42568)
Assay: AF9 binding to AF4 blockers, potency – biochemical, cherry-picked samples, plate reader, dose response (AID 720495)
Settings: biochemical protein-protein interaction assay; for activity change, negative = inhibition: at 10 µM (top of the series)

Protein AF-9 (Homo sapiens), sequence (P42568 whole entry, looked up): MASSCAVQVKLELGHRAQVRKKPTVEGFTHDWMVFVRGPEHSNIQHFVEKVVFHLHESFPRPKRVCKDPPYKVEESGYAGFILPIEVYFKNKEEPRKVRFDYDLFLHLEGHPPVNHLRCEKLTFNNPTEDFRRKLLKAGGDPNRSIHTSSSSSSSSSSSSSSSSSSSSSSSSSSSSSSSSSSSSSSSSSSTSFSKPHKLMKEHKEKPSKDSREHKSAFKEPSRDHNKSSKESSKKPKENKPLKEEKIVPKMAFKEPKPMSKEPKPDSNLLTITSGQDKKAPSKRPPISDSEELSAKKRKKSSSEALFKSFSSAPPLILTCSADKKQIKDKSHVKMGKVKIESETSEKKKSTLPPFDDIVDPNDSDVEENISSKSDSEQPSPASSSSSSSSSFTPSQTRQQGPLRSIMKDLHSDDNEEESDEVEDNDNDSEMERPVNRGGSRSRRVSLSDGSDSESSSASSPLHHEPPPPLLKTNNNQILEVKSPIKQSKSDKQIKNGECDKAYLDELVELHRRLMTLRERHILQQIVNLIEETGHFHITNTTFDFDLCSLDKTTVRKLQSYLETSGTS

| SMILES | activity change, negative = inhibition | AC50 [µM] |
| --- | --- | --- |
| COc1ccc(CN2CCC(N(CCc3ccccc3)Cc3ccccc3)CC2)c(OC)c1 | inactive | – |
| O=C(Nc1ccc(N2CCCCCC2)cc1)c1ccc[nH]1 | – | 5.21 |
| CN1\C(=C/C=C/C=C/C=[N+](C)C)C(C)(C)c2ccccc21 | – | 9.97 |
| Oc1cc(-c2ccncc2)cc2cccnc12 | – | 3.01 |
| Cc1cc(C)c2sc(N(CCCN(C)C)C(=O)c3ccc(S(=O)(=O)N4CCCc5ccccc54)cc3)nc2c1 | inactive | – |
| C#CCOCCOCCOCCNc1nc(N2CCN(C(=O)[C@H](CCCCN)n3cc([C@@H](N)CC(N)=O)nn3)CC2)nc(N2CCN(C(=O)[C@H](CCCCN)n3cc([C@@H](N)CC(N)=O)nn3)CC2)n1 | – | 6.87 |
| Cc1cc2c(cc1C)N[C@]1(C[C@H]3CCCC(=O)N4CC[C@@H](C1)[C@@H]34)C(=NC(C)(C)CC(C)(C)C)N2 | inactive | – |
| CN(C(=O)c1ccc(NC(=O)Cc2ccc(NC(=O)C3CCN(C(=O)c4ccccc4)CC3)cc2)cc1)C1CC1 | – | 0.233 |
| CCN(CC)c1ccc(CNc2nc3ccccc3n2CCN2CCCCC2)cc1 | – | 5.83 |
| Cc1ccc2c(c1)c1c3n2CCCN(Cc2ccccc2)C3CCC1 (stereo not drawn) | inactive | – |
| CCOc1ccc(NCc2cccn2-c2nnc(N3CCC(C(=O)NCCCN4CCCCC4)CC3)s2)cc1 | – | 5.94 |
| COc1ccccc1C#Cc1ccc2c(c1)[C@H]1[C@H](CCN1C(=O)c1ccncc1)[C@@H](CO)N2 | – | 7.63 |
| Cc1[nH]n(-c2ccccc2)c(=O)c1N=Nc1c(O)cc(S(=O)(=O)N(C)C)c2ccccc12 | inactive | – |
| CC[C@H](C)[C@@H]1NC(=O)c2cc([N+](=O)[O-])cc(F)c2NCCCC[C@@H](C(N)=O)NC(=O)[C@H](CCCCN)NC1=O | – | 9.36 |
| CC(=Nc1ccc(C)cc1C)c1sc2ccccc2c1O | inactive | – |
| CN(C)c1ccc(N=C/C=C2/N(C)c3ccccc3C2(C)C)cc1 | – | 7.5 |
| CCc1cccc(NC(=O)CCCCCC2NC(=O)NC2C)c1 (stereo not drawn) | – | < 0.08 |
| CN1CCN(C(c2ccc(C(F)(F)F)cc2)c2cc(Cl)c3cccnc3c2O)CC1 (stereo not drawn) | – | 1.54 |
| COc1cc(/C=N/N=C(N)N)ccc1OCc1ccc(Cl)cc1 | inactive | – |
| Cc1[nH]c2ccccc2c1N=Nc1ccccc1F | – | 10.2 |
| CCc1ccc(-c2nc(CSCC(=O)N3CCN(c4ncccn4)CC3)c(C)o2)cc1 | inactive | – |
| CCOc1ccc(Nc2nc(NCC3CCCO3)c3ccccc3n2)cc1 (stereo not drawn) | inactive | – |
| COCCCNCC(O)COc1cccc2[nH]c(C)cc12 (stereo not drawn) | inactive | – |
| Cc1c(C)n(Cc2ccc(Cl)cc2)c2ccc(C(=O)NCCCN3CCOCC3)cc12 | inactive | – |

| SMILES | activity change, negative = inhibition | AC50 [µM] |
| --- | --- | --- |
| CCN(CC)c1ccc(C(=C2C=CC(=[N+](CC)CC)C=C2)c2ccc(N(CC)CC)cc2)cc1 | – | 0.153 |
| COC1=C(Nc2ccc(O)cc2)C(=O)c2ccccc2C1=O | – | 9.8 |
| C#CCOCCOCCOCCNc1nc(N2CCN(C(=O)[C@H](CCCN=C(N)N)n3cc(C(N)[C@@H](C)CC)nn3)CC2)nc(N2CCN(C(=O)[C@H](CCCCN)n3cc([C@@H](N)[C@H](C)CC)nn3)CC2)n1 (stereo partly drawn) | – | 3.6 |
| CSCCC(c1nnnn1C1CCCCC1)N1CCC(n2c(=O)[nH]c3ccccc32)CC1 (stereo not drawn) | inactive | – |
| O=S(=O)(c1ccc(Cl)cc1)N1CCN(Cc2ccc(O)c3ncccc23)CC1 | inactive | – |
| C[C@H](CO)N1C[C@H](C)[C@H](CN(C)Cc2ccc(Cl)c(Cl)c2)Oc2ccc(N(C)C)cc2C1=O | inactive | – |
| CCCN(CC1CC1)c1cc2c(c3c1ccn3C)C1CCC2C1 (stereo not drawn) | – | 7.79 |
| Cc1oc(-c2cccc3ccccc23)nc1CN1CCN(c2ncnc3ccccc23)CC1 | inactive | – |
| COc1ccc(C)cc1Nc1n[n+](-c2ccccc2)c(-c2c(Cl)cccc2Cl)s1 | inactive | – |
| Cc1ccc(NC(=S)N(CCCN2CCCC2)Cc2cccn2Cc2ccc(Cl)cc2)cc1 | inactive | – |
| CN(C)c1ccc(Nc2nc(N)c3ccccc3n2)cc1 | – | 7.47 |
| CN(C)c1cccc2c(C=C(C#N)C#N)ccc(N(C)C)c12 | – | 1.04 |
| O=C1C(NS(=O)(=O)c2ccc(Cl)cc2)=C(N2CCCCC2)C(=O)c2ccccc21 | – | < 0.08 |
| CCN(CC)CCOc1ccc(/C(=C(/Cl)c2ccccc2)c2ccccc2)cc1 | – | 0.529 |
| CCSc1ccc(-c2cc(NC=O)c3ncc(-c4cccc(C(=O)NCCN(C)C)c4)n3c2)cc1 | – | 0.798 |
| COc1cc(OC)c2c(-c3ccccc3)cc(=O)oc2c1C(CCN1CCCCC1)c1ccc2c(c1)OCO2 (stereo not drawn) | – | 1.08 |
| COc1ccc(OC)c(Nc2c3ccccc3nc3ccccc23)c1 | – | 7.11 |
| Cc1ccsc1/C=N/N1CCN(Cc2ccccc2)CC1 | inactive | – |
| Cn1ccc2c(N3CCCCCC3)cc3c(c21)C1CCC3C1 (stereo not drawn) | inactive | – |
| CCN(CC)c1ccc(CN2CCC(C(=O)NCc3ccc(C)cc3)CC2)cc1 | inactive | – |
| COc1ccc(OC)c(NC2=C(Cl)C(=O)N(Cc3ccccc3)C2=O)c1 | inactive | – |
| CCN1CCN(c2ccc(N)cc2C)CC1 | – | 6.46 |
| COc1ccc2sc(N(CCCN(C)C)C(=O)c3ccc(S(=O)(=O)N(C)C4CCCCC4)cc3)nc2c1 | inactive | – |
| CN(C)c1ccc(C(CNC(=O)c2ccccc2)c2c[nH]c3ccccc23)cc1 (stereo not drawn) | inactive | – |

| SMILES | activity change, negative = inhibition | AC50 [µM] |
| --- | --- | --- |
| CN=c1scc(-c2cccs2)n1/N=C/c1ccccc1O | inactive | – |
| CC(C)N1C(=O)/C(=C\c2nc3ccccc3c(=O)[nH]2)c2ccccc21 | inactive | – |
| CC1Cc2ccccc2N1C(=O)c1ccc(N2CCCC2)c([N+](=O)[O-])c1 (stereo not drawn) | inactive | – |
| COc1cc(C2CC(=O)Oc3c(C(CCN4CCOCC4)c4ccc(N(C)C)cc4)c(OC)cc(OC)c32)cc(OC)c1OC (stereo not drawn) | – | 1.55 |
| CN(C)c1ccc(C(CN)c2c[nH]c3ccccc23)cc1 (stereo not drawn) | inactive | – |
| CN(C)c1ccc(/C=C2/C[N+](C)(C)C/C(=C/c3ccc(N(C)C)cc3)C2=O)cc1 | – | 2.81 |
| CCOc1cc(/C=N/N=C(N)N)ccc1OCc1ccc(Cl)cc1 | inactive | – |
| COc1ccc(N2CCN(C3CCCN(S(=O)(=O)c4ccc(C)cc4C)C3)CC2)cc1 (stereo not drawn) | inactive | – |
| CC(C)n1ncc2c(C(=O)Nc3ccc(S(N)(=O)=O)cc3)cc(C3CC3)nc21 | inactive | – |
| O=C1CN=C(c2ccc(Br)cc2)c2c(sc3c2CCCC3)N1CCN1CCCCC1 | inactive | – |
| O=C(CN1CCCC1)N/N=C/c1c(O)ccc2ccccc12 | – | 0.249 |
| Nc1ccc(O)c2c1C(=O)c1ccccc1C2=O | inactive | – |
| COc1ccc2nc3ccccc3nc2c1N | – | 3.44 |
| Cc1c(C)n(Cc2ccccc2)c2ccc(C(=O)OCCN(C)C)cc12 | inactive | – |
| CCN1C(=O)/C(=C\C(=O)c2cccs2)c2cc(Br)ccc21 | inactive | – |
| COc1ccc(N2CCN(C3CCCCC3NS(=O)(=O)c3ccccc3)CC2)cc1 (stereo not drawn) | inactive | – |
| CCOC(=O)C1CCN(C2=C(NS(=O)(=O)c3ccc(Cl)cc3)C(=O)c3ccccc3C2=O)CC1 | inactive | – |
| CC1C(=NO)C(C)C(c2ccc(N(C)C)cc2)NC1c1ccc(N(C)C)cc1 (stereo not drawn) | – | 10.4 |
| Cc1cc2c(=Cc3ccc(N(C)C)cc3)c3ccccc3n2[n+]1C | inactive | – |
| CCOc1ccc(/C=N/Nc2cc(N3CCOCC3)ncn2)c(O)c1 | inactive | – |
| CN(C)CCCNC(=S)NCC(c1ccc(Cl)cc1Cl)c1c[nH]c2ccccc12 (stereo not drawn) | – | 10.7 |
| CNC(=S)N1N=C(c2ccc(C)cc2)CC1c1ccc(N(C)C)cc1 (stereo not drawn) | inactive | – |
| CC(C)C[C@@H](C(=O)NC1CCN(Cc2ccccc2)CC1)N1C(=O)N2CCc3c([nH]c4ccccc34)[C@@]2(C)C1=O | inactive | – |
| CCC1CN2CCc3cc(OC)c(OC)cc3C2CC1CC1NCCc2c1[nH]c1ccc(O)cc21 (stereo not drawn) | – | 7.26 |

| SMILES | activity change, negative = inhibition | AC50 [µM] |
| --- | --- | --- |
| O=C(COc1cc(F)ccc1[N+](=O)[O-])Nc1ccc(N2CCCCC2)cc1 | – | 9.04 |
| COc1ccc2ccccc2c1-c1sc(Nc2ccccc2)n[n+]1-c1ccc(F)cc1 | inactive | – |
| COc1ccc(N=C2S/C(=C\c3ccc(Cl)c([N+](=O)[O-])c3)C(=O)N2CCN(C)C)cc1 | inactive | – |
| CCN(CC)c1ccc(CNc2ccc3c(c2)ncn3C(C)(C)C)cc1 | – | 3.48 |
| CN(C)CCCN1c2ccccc2Sc2ccc(Cl)cc21 | inactive | – |
| COC1=C(Nc2ccccc2OC)C(=O)c2ccccc2C1=O | – | 3.9 |
| Oc1c(C(Nc2cccc(C(F)(F)F)c2)c2ccncc2)ccc2cccnc12 (stereo not drawn) | – | 0.515 |
| COc1ccc(-c2ccc3[nH]c4c(c3c2)CCN2C[C@H]3[C@H](C)ON(C)[C@H]3C[C@@H]42)cc1 | inactive | – |
| Cc1ccc2nc(-c3ccc(NC(=S)NC4CC(C)(C)NC(C)(C)C4)cc3)sc2c1 | – | 7.34 |
| CCN(CC)c1ccc(N=Cc2cc(Br)ccc2O)cc1 | inactive | – |
| c1ccc2c(NCCc3c[nH]c4ccccc34)c3ccccc3nc2c1 | – | 5.9 |
| S=C(NN=C(c1ccccc1)c1ccccn1)N(Cc1ccccn1)Cc1ccccn1 | inactive | – |
| CC1C/C(=C/c2cccs2)C(=O)/C(=C/c2cccs2)C1 (stereo not drawn) | inactive | – |
| COc1ccc(NCc2ccc(OC)c(Cn3ccnc3)c2)c(OC)c1 | – | 11.2 |
| O=C(NC1CCCCC1)C(c1cccs1)N(CCCN1CCOCC1)C(=O)c1ccc(-c2ccccc2)[nH]1 (stereo not drawn) | inactive | – |
| CCOc1ccc(NCc2cccn2-c2nnc(N3CCC(C(=O)NCCCN4CCCCC4C)CC3)s2)cc1 (stereo not drawn) | – | 4.96 |
| CC1(C)CNc2cc(N)ccc2S1 | – | 2.52 |
| CNC(=S)N1N=C(c2ccc(Br)cc2)CC1c1ccc(N(C)C)cc1 (stereo not drawn) | inactive | – |
| COc1cc(NCCCCCCN)c2ncccc2c1OC | – | 2.62 |
| CC(=O)Nc1ccc(S(=O)(=O)NC2=C(N3CCN(Cc4ccccc4)CC3)C(=O)c3ccccc3C2=O)cc1 | inactive | – |
| Cc1ccc2ccc(C(Nc3cccc(C(F)(F)F)c3)c3cccnc3)c(O)c2n1 (stereo not drawn) | inactive | – |
